Results published in patent publication US12673961B2 (Agios Pharmaceuticals, Inc., priority 2022, dated 2026).

molecular target: T1, human PAH with the R408W mutation (Homo sapiens, UniProt P00439, R408W); test: Cell Based Phenylalanine Flux Assay; details: A375 cells expressing human R408W PAH; 24 hrs with compound, then sepiapterin and 13C9,15N-Phenylalanine for 4 hours; 13C-Tyrosine by LC-MS; average where tested multiple times; read-out: AC50;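 note: Ten-point dose curve from 2-fold serial dilutions, run in duplicate at 0.5% DMSO final, tracer step used 20 µM sepiapterin and 800 µM labeled phenylalanine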
T1 construct: expressed in transfected cells
T1 sequence (P00439 1-452 R408W): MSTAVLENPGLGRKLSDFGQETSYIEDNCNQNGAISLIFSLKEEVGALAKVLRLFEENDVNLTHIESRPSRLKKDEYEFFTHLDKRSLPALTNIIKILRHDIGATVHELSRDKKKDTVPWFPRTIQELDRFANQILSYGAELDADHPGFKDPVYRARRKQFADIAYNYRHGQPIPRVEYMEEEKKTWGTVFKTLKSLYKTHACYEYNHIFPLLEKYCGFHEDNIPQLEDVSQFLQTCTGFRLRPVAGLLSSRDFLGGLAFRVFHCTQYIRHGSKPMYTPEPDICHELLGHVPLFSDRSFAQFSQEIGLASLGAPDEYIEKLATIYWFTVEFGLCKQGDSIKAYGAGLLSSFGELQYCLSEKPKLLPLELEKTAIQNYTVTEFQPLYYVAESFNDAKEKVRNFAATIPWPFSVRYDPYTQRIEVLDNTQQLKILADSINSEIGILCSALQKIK

| SMILES | AC50 |
| --- | --- |
| Fc1cccn2nc([C@@H]3c4nc[nH]c4CCN3c3nnc(C(F)(F)F)o3)cc12 [Example 1823] | 500 to 1000 nM |
| Fc1cccc(F)c1-c1nnc(N2CCc3[nH]cnc3[C@H]2c2cc3c(F)cccn3n2)o1 [Example 1865, (S)-2-(2,6-difluorophenyl)-5-(4-(4-fluoropyrazolo[1,5-a]pyridin-2-yl)-1,4,6,7-tetrahydro-5H-imidazo[4,5-c]pyridin-5-yl)-1,3,4-oxadiazole] | < 500 nM |
| CC(C)(C)c1ncc(C(=O)N2CCc3[nH]cnc3[C@H]2c2cc3ccccn3n2)o1 [Example 1866, (S)-(2-(tert-butyl)oxazol-5-yl)(4-(pyrazolo[1,5-a]pyridin-2-yl)-1,4,6,7-tetrahydro-5H-imidazo[4,5-c]pyridin-5-yl)methanone] | < 500 nM |
| Fc1ccc(-c2nnc(N3CCc4[nH]cnc4[C@@H]3c3cc4c(C(F)F)cccn4n3)o2)cc1 [Example 1912, (R)-2-(4-(4-(difluoromethyl)pyrazolo[1,5-a]pyridin-2-yl)-1,4,6,7-tetrahydro-5H-imidazo[4,5-c]pyridin-5-yl)-5-(4-fluorophenyl)-1,3,4-oxadiazole] | > 5000 nM |
| Fc1ccc(-c2nnc(N3CCc4[nH]cnc4[C@H]3c3cc4c(C(F)F)cccn4n3)o2)cc1 [Example 1913, (S)-2-(4-(4-(difluoromethyl)pyrazolo[1,5-a]pyridin-2-yl)-1,4,6,7-tetrahydro-5H-imidazo [4,5-c]pyridin-5-yl)-5-(4-fluorophenyl)-1,3,4-oxadiazole] | < 500 nM |
| Cc1cccn2nc([C@@H]3c4nc[nH]c4CCN3C(=O)c3cnc(C(C)(C)C)o3)cc12 [Example 1920, (S)-(2-(tert-butyl)oxazol-5-yl)(4-(4-methylpyrazolo[1,5-a]pyridin-2-yl)-1,4,6,7-tetrahydro-5H-imidazo[4,5-c]pyridin-5-yl)methanone] | < 500 nM |
| CCc1cccn2nc([C@H]3c4nc[nH]c4CCN3C(=O)c3nnc(C(C)(C)F)o3)cc12 [Example 1923, (R)-(4-(4-ethylpyrazolo [1,5-a]pyridin-2-yl)-1,4,6,7-tetrahydro-5H-imidazo [4,5-c]pyridin-5-yl)(5-(2-fluoropropan-2-yl)-1,3,4-oxadiazol-2-yl)methanone] | > 5000 nM |
| CC(C)c1cccn2nc([C@@H]3c4nc[nH]c4CCN3C(=O)c3nnc(-c4cnn(C(F)F)c4)o3)cc12 [Example 1936, (S)-(5-(1-(difluoromethyl)-1H-pyrazol-4-yl)-1,3,4-oxadiazol-2-yl)(4-(4-isopropylpyrazolo[1,5-a]pyridin-2-yl)-1,4,6,7-tetrahydro-5H-imidazo[4,5-c]pyridin-5-yl)methanone] | < 500 nM |
| CC(C)(F)c1nnc(C(=O)N2CCc3[nH]cnc3[C@H]2c2cc3c(Br)cccn3n2)o1 [Example 1938, (S)-(4-(4-bromopyrazolo [1,5-a]pyridin-2-yl)-1,4,6,7-tetrahydro-5H-imidazo [4,5-c]pyridin-5-yl)(5-(2-fluoropropan-2-yl)-1,3,4-oxadiazol-2-yl)methanone] | < 500 nM |
| CC(C)(F)c1nnc(C(=O)N2CCc3[nH]cnc3[C@@H]2c2cc3c(Br)cccn3n2)o1 [Example 1939, (R)-(4-(4-bromopyrazolo [1,5-a]pyridin-2-yl)-1,4,6,7-tetrahydro-5H-imidazo [4,5-c]pyridin-5-yl)(5-(2-fluoropropan-2-yl)-1,3,4-oxadiazol-2-yl)methanone] | 1000 to 5000 nM |

The next lines start with the values.

| AC50 | SMILES |
| --- | --- |
| 500 to 1000 nM | O=C(c1nnc(-c2cnccn2)o1)N1CCc2[nH]cnc2[C@H]1c1cc2c(C3CC3)cccn2n1 [Example 1857, (S)-(4-(4-cyclopropylpyrazolo [1,5-a]pyridin-2-yl)-1,4,6,7-tetrahydro-5H-imidazo[4,5-c]pyridin-5-yl)(5-(pyrazin-2-yl)-1,3,4-oxadiazol-2-yl)methanone] |
| > 5000 nM | Cn1ccc(-c2nnc(C(=O)N3CCc4[nH]cnc4[C@@H]3c3cc4c(Br)cccn4n3)o2)n1 [Example 1888, (R)-(4-(4-bromopyrazolo [1,5-a]pyridin-2-yl)-1,4,6,7-tetrahydro-5H-imidazo[4,5-c]pyridin-5-yl)(5-(1-methyl-1H-pyrazol-3-yl)-1,3,4-oxadiazol-2-yl)methanone] |
| < 500 nM | CCc1cccn2nc([C@@H]3c4nc[nH]c4CCN3C(=O)c3nnc(-c4ccccn4)o3)cc12 [Example 1895, (S)-(4-(4-ethylpyrazolo[1,5-a]pyridin-2-yl)-1,4,6,7-tetrahydro-5H-imidazo[4,5-c]pyridin-5-yl)(5-(pyridin-2-yl)-1,3,4-oxadiazol-2-yl) methanone] |
| 500 to 1000 nM | O=C(c1nnc(-c2ccccn2)o1)N1CCc2[nH]cnc2[C@H]1c1cc2c(C3CC3)cccn2n1 [Example 1897, (S)-(4-(4-cyclopropylpyrazolo [1,5-a]pyridin-2-yl)-1,4,6,7-tetrahydro-5H-imidazo [4,5-c]pyridin-5-yl)(5-(pyridin-2-yl)-1,3,4-oxadiazol-2-yl)methanone] |
| > 5000 nM | Cn1ccc(-c2nnc(C(=O)N3CCc4[nH]cnc4[C@@H]3c3cc4c(C5CC5)cccn4n3)o2)n1 [Example 1901] |
| < 500 nM | CC(C)c1cccn2nc([C@@H]3c4nc[nH]c4CCN3C(=O)c3nnc(-c4ncccc4F)o3)cc12 [Example 1906, (S)-(5-(3-fluoropyridin-2-yl)-1,3,4-oxadiazol-2-yl)(4-(4-isopropylpyrazolo[1,5-a]pyridin-2-yl)-1,4,6,7-tetrahydro-5H-imidazo[4,5-c]pyridin-5-yl)methanone] |
| 1000 to 5000 nM | O=C(c1nnc(C2CC2)o1)N1CCc2[nH]cnc2[C@@H]1c1cc2c(Br)cccn2n1 [Example 1909, (R)-(4-(4-bromopyrazolo [1,5-a]pyridin-2-yl)-1,4,6,7-tetrahydro-5H-imidazo [4,5-c]pyridin-5-yl)(5-cyclopropyl-1,3,4-oxadiazol-2-yl)methanone] |
| > 5000 nM | O=C(c1nnc(-c2ccccn2)o1)N1CCc2[nH]cnc2[C@@H]1c1cc2c(Br)cccn2n1 [Example 1910, (R)-(4-(4-bromopyrazolo [1,5-a]pyridin-2-yl)-1,4,6,7-tetrahydro-5H-imidazo[4,5-c]pyridin-5-yl)(5-(pyridin-2-yl)-1,3,4-oxadiazol-2-yl)methanone] |
| < 500 nM | CCc1cccn2nc([C@@H]3c4nc[nH]c4CCN3C(=O)c3nnc(-c4cnn(C)c4)o3)cc12 [Example 1924, (S)-(4-(4-ethylpyrazolo [1,5-a]pyridin-2-yl)-1,4,6,7-tetrahydro-5H-imidazo[4,5-c]pyridin-5-yl)(5-(1-methyl-1H-pyrazol-4-yl)-1,3,4-oxadiazol-2-yl)methanone] |
| < 500 nM | CCc1cccn2nc([C@@H]3c4nc[nH]c4CCN3C(=O)c3nnc(-c4ccn(C)n4)o3)cc12 [Example 1927, (S)-(4-(4-ethylpyrazolo [1,5-a]pyridin-2-yl)-1,4,6,7-tetrahydro-5H-imidazo[4,5-c]pyridin-5-yl)(5-(1-methyl-1H-pyrazol-3-yl)-1,3,4-oxadiazol-2-yl)methanone] |
| < 500 nM | Cc1c(-c2nnc(C(=O)N3CCc4[nH]cnc4[C@H]3c3cc4c(C(C)C)cccn4n3)o2)cnn1C [Example 1948, (S)-(5-(1,5-dimethyl-1H-pyrazol-4-yl)-1,3,4-oxadiazol-2-yl)(4-(4-isopropylpyrazolo [1,5-a]pyridin-2-yl)-1,4,6,7-tetrahydro-5H-imidazo[4,5-c]pyridin-5-yl)methanone] |
